The nature of data set [1]: Stability and tolerance of transplanted skin organoids in immunocompetent hosts. Format: in vivo, mouse. Conditions: CD1 hosts. From the text:
For grafting with skin organoids, CD1 (isogenic mouse keratinocyte transplantation) males or Nude (human keratinocyte transplantation) females with the ages of 6-8 weeks were anesthetized. A silicone chamber bottom with the interior diameter of 0.8 cm and the exterior diameter of 1.5 cm was implanted on its shaved dorsal mid-line skin, which was used to hold the skin graft. A chamber cap was installed to seal the chamber right after a piece of graft was implanted. About one week later, the chamber cap was removed to expose the graft to air. A single dose of 0.2 mg α-CD4 (GK1.5) and 0.2 mg α-CD8 (2.43.1) antibodies was administered intraperitoneally for skin grafting.
Optical imaging was performed in the integrated small animal imaging research resource (iSAIRR) at the University of Chicago. Bioluminescence images were acquired on an IVIS Spectrum (Caliper Life Sciences®, Alameda, CA) after animal was injected with luciferin (100 mg/kg). […]
Grafted cells in immunocompetent hosts readily expressed exogenous genes, such as Luciferase and Histone H2B-RFP (FIG. 1B-D), which were transduced to the cells with lentivirus. […] Importantly, the tissue organoid with expression of exogenous gene, such as Luciferase and H2B-RFP, was stable in vivo for more than 5 months in immunocompetent hosts, as determined by intravital bioluminescence imaging and tissue histology. […]

The subject of a further data set is mouse epidermal cells. The experiment in a line: Secretion of GLP1 in cell culture medium by ELISA (mouse epidermal cells). Format: cell-based.
Data set [2] is described as follows: Obesity induced by high fat diet in grafted mice. Format: in vivo, mouse. From the text:
Male CD-1 mice with skin transplants were housed (5 per cage, ˜8 weeks old) in a central-controlled animal facility for air, humidity and temperature. These mice were fed either a regular chow or an HFD (60% kcal from fats, 20% from carbohydrates, and 20% from proteins) purchased from Bio-Serv (Frenchtown, NJ). Body weight and food intake were measure biweekly.
To examine the potential applicability in diet-induced obesity and diabetes, GLP1/GGBP-expressing cells and control cells (GGBP alone) were transplanted into two cohorts of CD1 adult male mice. The mice were fed a high fat diet (HFD) to induce obesity in grafted animals. Compared with animals on a regular chow diet, the HFD greatly accelerated body weight gain in mice grafted with control cells.
Male CD-1 mice were housed (5 per cage, ˜8 weeks old) in a central-controlled animal facility for air, humidity, and temperature. These mice were fed either a regular chow or an HFD (60% kcal from fats, 20% from carbohydrates, and 20% from proteins) purchased from Bio-Serv (Frenchtown, NJ). Body weight and food intake were measure biweekly.
To examine the potential effect in diet-induced obesity and diabetes, GLP1-expressing cells and control cells were grafted onto two cohorts of CD1 adult mice, and a high fat diet (HFD) was used to induce obesity in the grafted animals. Doxycycline was applied to half of the animals to induce expression of GLP1. To minimize gender difference, only male animals were used. Compared with animals on regular chow diet, HFD greatly accelerated body weight gain in mice grafted with control cells or GLP1 cells without doxycycline treatment.

Data set [3] can be described thus: Intraperitoneal glucose tolerance test (IPGTT) in grafted mice fed HFD. The format is in vivo, mouse. Here is the method: For glucose tolerance testing, an intraperitoneal glucose tolerance test (IPGTT) was performed on mice fed an HFD for 10 weeks. Mice were fasted for 6 h before the test. Animals were injected (1 g/kg glucose/body weight, i.p.) with glucose dissolved in saline, and blood glucose was measured at 0, 10, 20, 30, 60 and 90 minutes using glucose test strips and glucose meters.
IPGTT was performed to examine glucose homeostasis.
For glucose and insulin tolerance tests, an intraperitoneal glucose tolerance test (IPGTT) was performed on mice fed an HFD for 10 weeks. Mice were fasted for 6 h before the test. Animals were injected (1 g/kg glucose/body weight, i.p.) with glucose dissolved in saline, and blood glucose was measured at 0, 30, 60 and 90 min using glucose test strips and glucose meters. An intraperitoneal insulin tolerance test was carried out 1 week after IPGTT. Mice were fasted for 4 h and injected (2 U/kg, i.p.) with insulin purchased from Sigma (St. Louis, MO). Blood glucose levels were determined thereafter at 0, 30, 60 and 90 min.
To examine glucose homeostasis, IPGTT (intraperitoneal glucose tolerance test) and ITT (insulin tolerance test) were performed.

Data set [4] in a line: GLP1 level in blood by ELISA, nude mice grafted with human skin organoids. Format: in vivo, mouse. Conditions: human GLP1-expressing grafts, doxycycline food. The source says:
The engineered cells stratified and formed skin organoids in vitro, which were transplanted to nude hosts (FIG. 13G-H).
In general terms: ELISA stands for enzyme-linked immunosorbent assay.

On to GLP1, for which the “rejection of skin grafts after transplantation” value in data set [1] is given as “No significant rejection of the skin grafts has been observed”. Also, the “GLP1 production and secretion” value in the data set with mouse epidermal cells (GLP1/GGBP expression cassette, constitutive) was “robust GLP1 production and secretion”. Besides, the GLP1 production result in the data set with mouse epidermal cells (tetracycline-inducible cassette, doxycycline stimulation) was “robust GLP1 production upon stimulation with doxycycline in a dose-dependent manner”. In data set [2] (HFD, GLP1/GGBP-expressing grafts vs GGBP alone, CD1 male mice), the body weight increase result is reported as “significant inhibition in body weight increase”. For the same substance, the body weight result in data set [2] (HFD, doxycycline-induced GLP1 expression, CD1 male mice) was “significant decrease in body weight”. In data set [2] (doxycycline-induced GLP1 expression), the “HFD-induced adipocyte hypertrophy in white fat tissue” value was “dramatically suppressed this effect”. Besides, the glycemic excursion result in data set [3] (GLP1/GGBP grafts, blood glucose and GGBP imaging) is reported as “significantly reduced glycemic excursion”; in data set [3] (HFD, doxycycline-induced GLP1) it was “significantly reduced glycemic excursion”. Moreover, in data set [4], the “GLP1 in the blood” value is “significant secretion of GLP1 was detected in the blood”.
